Our source for the T/C values is PubChem BioAssay AID248 (DTP/NCI, 2004).

The subject of the assay is L1210 leukemia ip in BDF1 mice, survival T/C. The experiment in a line: NCI In Vivo Anticancer Drug Screen. Data for tumor model L1210 Leukemia (intraperitoneal) in B6D2F1 (BDF1) mice. Particulars: endpoint: mean survival time, higher = longer survival. In short, it runs like this: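 Transplantable tumor model; survival measured in treated vs vehicle control mice. Value = treated/control.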

The mark [1] stands for this setting: dose: 100.0 mg/kg/injection, schedule: Q04DX003 (ip), vehicle: Klucel (hydroxypropylcellulose) (HPC).
Where [2] appears, read: dose: 200.0 mg/kg/injection, schedule: Q04DX003 (ip), vehicle: Klucel (hydroxypropylcellulose) (HPC).
Setting [3] is: dose: 400.0 mg/kg/injection, schedule: Q04DX003 (ip), vehicle: Klucel (hydroxypropylcellulose) (HPC).
Setting [4] is: dose: 25.0 mg/kg/injection, schedule: Q04DX002 (ip), vehicle: saline.
Setting [5] is: dose: 50.0 mg/kg/injection, schedule: Q04DX002 (ip), vehicle: saline.
Setting [6] is: dose: 6.25 mg/kg/injection, schedule: Q04DX003 (ip), vehicle: Klucel (hydroxypropylcellulose) (HPC).
[7] abbreviates: dose: 12.5 mg/kg/injection, schedule: Q04DX003 (ip), vehicle: Klucel (hydroxypropylcellulose) (HPC).
[8] abbreviates: dose: 100.0 mg/kg/injection, schedule: Q04DX003 (ip), vehicle: saline.
[9] abbreviates: dose: 200.0 mg/kg/injection, schedule: Q04DX003 (ip), vehicle: saline.
[10] abbreviates: dose: 100.0 mg/kg/injection, schedule: Q01DX009 (ip), vehicle: saline with Tween-80.
The mark [11] stands for this setting: dose: 100.0 mg/kg/injection, schedule: Q04DX003 (ip), vehicle: saline with Tween-80.
The mark [12] stands for this setting: dose: 200.0 mg/kg/injection, schedule: Q01DX009 (ip), vehicle: saline with Tween-80.
Setting [13] is: dose: 200.0 mg/kg/injection, schedule: Q04DX003 (ip), vehicle: saline with Tween-80.
[14] abbreviates: dose: 400.0 mg/kg/injection, schedule: Q01DX009 (ip), vehicle: saline with Tween-80.
The mark [15] stands for this setting: dose: 400.0 mg/kg/injection, schedule: Q04DX003 (ip), vehicle: saline with Tween-80.

Where “and” joins values, the source holds several entries; their conditions need not be identical. Equal values may be shown once. Inconclusive results and toxic doses are left out.

With `O=[N+]([O-])c1ccc(Cl)c(C(=S)N2CCCCC2)c1`, the T/C under setting [1] was 99 % of control, the T/C under setting [2] is 96 % of control and the T/C under setting [3] is 96 % of control.
On to `CCCC(NC(=O)C(C)N)C(=O)O` (stereo not given), for which the T/C was 105 % of control (dose: 12.5 mg/kg/injection, schedule: Q04DX002 (ip), vehicle: saline); 102 % of control under setting [4]; 102 % of control under setting [5].
Consider `O=C1c2ccccc2C(=O)N1CNc1ccccc1S`, for which the T/C (dose: 100.0 mg/kg/injection, schedule: Q01DX009 (ip), vehicle: Klucel (hydroxypropylcellulose) (HPC)) was 100 % of control; the T/C (dose: 200.0 mg/kg/injection, schedule: Q01DX009 (ip), vehicle: Klucel (hydroxypropylcellulose) (HPC)) is 104 % of control; the T/C (dose: 400.0 mg/kg/injection, schedule: Q01DX009 (ip), vehicle: Klucel (hydroxypropylcellulose) (HPC)) was 109 % of control.
Turning to `CC1(C)CCC(NC(=O)NCCF)CC1`, the T/C (dose: 9.5 mg/kg/injection, schedule: Q01DX001 (ip), vehicle: other) is 95 % of control; the T/C (dose: 19.0 mg/kg/injection, schedule: Q01DX001 (ip), vehicle: other) was 102 % of control; the T/C (dose: 38.0 mg/kg/injection, schedule: Q01DX001 (ip), vehicle: other) was 101 % of control.
Consider `Cc1cc(NC(=O)c2ccccc2)c(C)cc1N`, for which the T/C by setting is: (dose: 100.0 mg/kg/injection, schedule: Q01DX001 (ip), vehicle: carboxymethylcellulose (CMC)) 92 % of control; (dose: 200.0 mg/kg/injection, schedule: Q01DX001 (ip), vehicle: carboxymethylcellulose (CMC)) 99 % of control; (dose: 400.0 mg/kg/injection, schedule: Q01DX001 (ip), vehicle: carboxymethylcellulose (CMC)) 101 % of control.
For the molecule `CNC(=O)OCC1=CC(=O)C=CC1=O`, the T/C runs as follows: under setting [6], 92 % of control; (dose: 12.5 mg/kg/injection, schedule: Q01DX001 (ip), vehicle: Klucel (hydroxypropylcellulose) (HPC)) 93 % of control; under setting [7], 94 % of control; (dose: 25.0 mg/kg/injection, schedule: Q01DX001 (ip), vehicle: Klucel (hydroxypropylcellulose) (HPC)) 96 % of control.
For the molecule `Cc1ccc(OS(=O)(=O)C2CC2c2ccccc2)cc1` (stereo not given), the T/C runs as follows: (dose: 100.0 mg/kg/injection, schedule: Q01DX001 (ip), vehicle: saline) 92 % of control; under setting [8], 102 % of control; (dose: 200.0 mg/kg/injection, schedule: Q01DX001 (ip), vehicle: saline) 97 % of control; under setting [9], 98 % of control; (dose: 400.0 mg/kg/injection, schedule: Q01DX001 (ip), vehicle: saline) 98 % of control; (dose: 400.0 mg/kg/injection, schedule: Q04DX003 (ip), vehicle: saline) 94 % of control.
`CN(Cc1cnc2nc(N)nc(N)c2n1)c1ccc(C(=O)NC(CCC(=O)O)C(=O)O)cc1Cl` (stereo not given): the T/C by setting is: (dose: 1.25 mg/kg/injection, schedule: Q01DX001 (ip), vehicle: saline) 114 % of control; (dose: 2.0 mg/kg/injection, schedule: Q01DX015 (ip), vehicle: saline) 291 % of control; (dose: 2.5 mg/kg/injection, schedule: Q01DX001 (ip), vehicle: saline) 114 % of control; (dose: 5.0 mg/kg/injection, schedule: Q01DX001 (ip), vehicle: saline) 118 % of control; (dose: 7.5 mg/kg/injection, schedule: Q01DX015 (ip), vehicle: saline) 166 % of control.
Consider `O=C(O)CSC(SCC(=O)O)c1ccccc1Cl`, for which the T/C runs as follows: (dose: 50.0 mg/kg/injection, schedule: Q04DX003 (ip), vehicle: Klucel (hydroxypropylcellulose) (HPC)) 96 % of control; under setting [1], 100 % of control; under setting [2], 96 % of control.
`CC(C(=O)c1ccc(Br)cc1)C(Br)c1ccccc1` (stereo not given): the T/C under setting [10] was 95 % of control; the T/C under setting [11] was 96 % of control; the T/C under setting [12] was 95 % of control; the T/C under setting [13] was 91 % of control; the T/C under setting [14] was 95 % of control; the T/C under setting [15] is 98 % of control.
As to `COc1ccc(/C=N\N/C(N)=N\N=C\c2ccc(OC)cc2)cc1`, the T/C was 89 % of control (dose: 15.0 mg/kg/injection, schedule: Q01DX Z (ip), vehicle: carboxymethylcellulose (CMC)); 97 % of control (dose: 30.0 mg/kg/injection, schedule: Q01DX Z (ip), vehicle: carboxymethylcellulose (CMC)); 93 % of control and 101 % of control (dose: 60.0 mg/kg/injection, schedule: Q01DX Z (ip), vehicle: carboxymethylcellulose (CMC)); 92 % of control (dose: 120.0 mg/kg/injection, schedule: Q01DX Z (ip), vehicle: carboxymethylcellulose (CMC)); 100 % of control (dose: 240.0 mg/kg/injection, schedule: Q01DX Z (ip), vehicle: carboxymethylcellulose (CMC)); 107 % of control (dose: 240.0 mg/kg/injection, schedule: Q01DX Z (oral), vehicle: carboxymethylcellulose (CMC)). For the same molecule, the T/C runs as follows: (dose: 480.0 mg/kg/injection, schedule: Q01DX Z (ip), vehicle: carboxymethylcellulose (CMC)) 90 % of control; (dose: 480.0 mg/kg/injection, schedule: Q01DX Z (oral), vehicle: carboxymethylcellulose (CMC)) 105 % of control; (dose: 960.0 mg/kg/injection, schedule: Q01DX Z (oral), vehicle: carboxymethylcellulose (CMC)) 104 % of control; (dose: 1920.0 mg/kg/injection, schedule: Q01DX Z (oral), vehicle: carboxymethylcellulose (CMC)) 102 % of control.
In the case of `CCCCCCCCCCCCC1CC2CCCCC2C2CCCCC12` (stereo not given), the T/C (dose: 100.0 mg/kg/injection, schedule: Q01DX001 (ip), vehicle: saline with Tween-80) is 95 % of control; the T/C (dose: 200.0 mg/kg/injection, schedule: Q01DX001 (ip), vehicle: saline with Tween-80) was 97 % of control; the T/C (dose: 400.0 mg/kg/injection, schedule: Q01DX001 (ip), vehicle: saline with Tween-80) is 89 % of control.
In the case of `Cc1ccc(S(=O)(=O)NNC(=O)C2(C)CC2(C)C(=O)O)cc1` (stereo not given), the T/C runs as follows: (dose: 100.0 mg/kg/injection, schedule: Q01DX001 (ip), vehicle: Klucel (hydroxypropylcellulose) (HPC)) 100 % of control; under setting [1], 91 % of control; under setting [11], 96 % of control; (dose: 200.0 mg/kg/injection, schedule: Q01DX001 (ip), vehicle: Klucel (hydroxypropylcellulose) (HPC)) 93 % of control; under setting [2], 89 % of control; under setting [13], 93 % of control. Also, the T/C is, setting by setting: (dose: 400.0 mg/kg/injection, schedule: Q01DX001 (ip), vehicle: Klucel (hydroxypropylcellulose) (HPC)) 101 % of control; under setting [3], 100 % of control; under setting [15], 86 % of control.
For the molecule `Nc1ccccc1CCc1ccccc1N`, the T/C is 98 % of control under setting [10], 98 % of control under setting [12] and 94 % of control under setting [14].
In the case of `O=C1OC(=O)C(Br)=C1Br`, the T/C is 101 % of control under setting [4]; 94 % of control (dose: 50.0 mg/kg/injection, schedule: Q01DX009 (ip), vehicle: saline); 97 % of control under setting [5]; 91 % of control (dose: 100.0 mg/kg/injection, schedule: Q01DX009 (ip), vehicle: saline); 97 % of control (dose: 100.0 mg/kg/injection, schedule: Q04DX002 (ip), vehicle: saline); 95 % of control under setting [8]. In addition, the T/C runs as follows: (dose: 200.0 mg/kg/injection, schedule: Q01DX009 (ip), vehicle: saline) 107 % of control; (dose: 200.0 mg/kg/injection, schedule: Q04DX002 (ip), vehicle: saline) 93 % of control and 103 % of control; under setting [9], 98 % of control.
In the case of `C=CCNC(=S)NN`, the T/C was 115 % of control under setting [6] and 95 % of control under setting [7].
For `CONC(N)=O`, the T/C was 100 % of control (dose: 100.0 mg/kg/injection, schedule: Q01DX Z (ip), vehicle: carboxymethylcellulose (CMC)); 98 % of control (dose: 200.0 mg/kg/injection, schedule: Q01DX Z (ip), vehicle: carboxymethylcellulose (CMC)); 100 % of control and 101 % of control (dose: 350.0 mg/kg/injection, schedule: Q01DX Z (ip), vehicle: carboxymethylcellulose (CMC)); 98 % of control (dose: 500.0 mg/kg/injection, schedule: Q01DX Z (ip), vehicle: carboxymethylcellulose (CMC)); 98 % of control (dose: 750.0 mg/kg/injection, schedule: Q01DX Z (ip), vehicle: carboxymethylcellulose (CMC)).
